{"source": "paper PMC3485312", "about": "“A Phage Display Selected 7-mer Peptide Inhibitor of the Tannerella forsythia Metalloprotease-Like Enzyme Karilysin can be Truncated to Ser-Trp-Phe-Pro” (PLoS ONE, 2012)", "key": {"[1]": {"target": "T1, Kly18 (Karilysin catalytic domain) (Tannerella forsythia, UniProt D0EM77)", "T1 construct": "Karilysin catalytic domain (Kly18) and intact Kly48 were produced as previously described; made in house", "T1 sequence (D0EM77 35-195)": "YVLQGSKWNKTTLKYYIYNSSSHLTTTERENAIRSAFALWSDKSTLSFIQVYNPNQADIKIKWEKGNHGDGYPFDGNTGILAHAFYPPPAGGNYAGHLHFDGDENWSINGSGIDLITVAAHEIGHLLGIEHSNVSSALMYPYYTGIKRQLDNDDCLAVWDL", "conditions": "cited from earlier work", "source_text": "The development of MMP inhibitors is highly relevant, due to the involvement of MMPs in several pathologies. Some candidate molecules act by blocking the MMP-active sites via binding to the catalytic Zn^2+ through chelators such as hydroxamate. These approaches have been successful for MMP inhibition. However, the inhibitors have a broad specificity towards other MMPs due to very similar active site geometries of matrix metalloproteinases. An alternative approach to specific MMP inhibitor design is to utilize larger molecules, such as peptides, that interact with the activ ..."}, "[2]": {"target": "T1, Kly18 (Karilysin catalytic domain)", "assay": "biochemical", "conditions": "for Kly18 inhibitory activity, single concentration screen: 87 µM peptide", "method": "(§1) Kly18 and Kly48 protease activities were monitored essentially as described. One hundred µl working volumes were used in black untreated polypropylene microtitre plates and FITC-casein was used as the substrate. Assays were performed at 37°C using 500 nM of Kly18 (or Kly48) in assay buffer (100 mM Tris-HCl, 5mM CaCl2, pH 8.0), at a FITC-casein concentration of 25 µg/ml. […] Peptides were dissolved in Milli Q water and added in varying molarities. The assay setup was as follows; Kly18 (or Kly48) was diluted in assay buffer together with peptide, followed by 30 minutes incubation on a vertical shaker at 22°C. Then FITC-casein was added and fluorescence formation was monitored at 37°C for 90 minutes with measurements every ten minutes."}, "intact Karilysin (Kly48)": {"target": "T2, intact Karilysin (Kly48) (Tannerella forsythia, UniProt D0EM77)", "T2 construct": "made in house", "T2 sequence (D0EM77 35-472)": "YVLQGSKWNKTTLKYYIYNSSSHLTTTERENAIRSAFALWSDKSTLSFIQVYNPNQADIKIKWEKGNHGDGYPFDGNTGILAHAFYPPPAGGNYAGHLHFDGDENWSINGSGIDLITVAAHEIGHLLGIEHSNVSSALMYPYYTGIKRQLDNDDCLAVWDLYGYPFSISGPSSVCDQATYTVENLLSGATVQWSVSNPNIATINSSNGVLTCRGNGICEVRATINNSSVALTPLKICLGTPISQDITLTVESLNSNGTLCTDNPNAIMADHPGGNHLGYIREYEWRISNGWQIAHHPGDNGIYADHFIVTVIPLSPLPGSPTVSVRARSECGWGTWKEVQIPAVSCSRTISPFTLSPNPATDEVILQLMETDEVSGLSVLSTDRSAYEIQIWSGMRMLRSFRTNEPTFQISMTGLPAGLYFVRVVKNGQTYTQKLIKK", "assay": "Kly48 protease activity assay with FITC-casein substrate", "format": "biochemical", "conditions": "500 nM Kly48, FITC-casein, peptide 2.3 µM to 55.6 µM; three experiments", "method": "as §1"}, "Karilysin (Kly48)": {"target": "T3, Karilysin (Kly48) (Tannerella forsythia, UniProt D0EM77)", "T3 construct": "made in house", "T3 sequence (D0EM77 35-472)": "as above", "assay": "Auto-processing of Kly48 monitored by SDS-PAGE", "format": "biochemical", "conditions": "Kly48 13 µM, peptide 455 µM, 37°C, 50 mM Tris-HCl, 2.5 mM CaCl2, pH 8.0, up to 48 hours", "method": "Karilysin (Kly48) at 13 µM was incubated at 37°C in 50 mM Tris-HCl, 2.5 mM CaCl2, 0.02% NaN3 pH 8.0 alone or in the presence of the peptide SWFPL at 455 µM. At different time points samples were withdrawn and the Kly48 autocatalytic processing was monitored by SDS-PAGE using 10% gels and the Tris-HCl/Tricine buffer system. Gels were stained with 0.1% Coomassie Brilliant Blue R-250 in 10% acetic acid followed by destaining. Samples were run alongside a Low Molecular Weight SDS-PAGE Marker."}}, "note": "Residues, ends and D or L forms follow the SMILES beside them."}
{"molecule": "c1cnc2c(c1)ccc1cccnc12", "note": "[1,10-phenanthroline]", "values": [{"measurement": "Inhibition of Kly18 by small molecule chelators", "setting": "[1]", "value": "inhibited"}]}
{"molecule": "(NH2)-WFP-(CONH2) [15-8]", "values": [{"measurement": "Kly18 inhibitory activity, single concentration screen", "setting": "[2]; FITC-casein substrate", "value": "lost most or all of their Kly18 inhibition capacity"}, {"measurement": "Kly18 inhibitory activity, single concentration screen", "setting": "[2]; FITC-casein substrate, listed as (NH2)-WFP-(CONH2)", "value": "completely inactive"}]}
{"molecule": "H-SWAPLRSGGGS-NH2 [15-16]", "values": [{"measurement": "Kly18 inhibitory activity, single concentration screen", "setting": "[2]; FITC-casein substrate", "value": "inactive"}]}
{"molecule": "H-WFPLRS-NH2 [15-13]", "values": [{"measurement": "Kly18 inhibitory activity, single concentration screen", "setting": "[2]; FITC-casein substrate", "value": "lost most or all of their Kly18 inhibition capacity"}]}
{"molecule": "O=C(O)CN(CCN(CC(=O)O)CC(=O)O)CC(=O)O", "note": "[EDTA]", "values": [{"measurement": "Inhibition of Kly18 by small molecule chelators", "setting": "[1]", "value": "inhibited"}]}
{"molecule": "(NH2)-WFPLR-(CONH2) [15-14]", "values": [{"measurement": "Kly18 inhibitory activity, single concentration screen", "setting": "[2]; FITC-casein substrate", "value": "lost most or all of their Kly18 inhibition capacity"}]}
{"molecule": "H-SWFPLRSGGGS-NH2 [15-0]", "values": [{"measurement": "Ki", "setting": "[2]", "value": "5.34 ± 0.51", "unit": "µM"}]}
{"molecule": "H-WFPLRSG-NH2 [15-12]", "values": [{"measurement": "Kly18 inhibitory activity, single concentration screen", "setting": "[2]; FITC-casein substrate", "value": "lost most or all of their Kly18 inhibition capacity"}]}
{"molecule": "NC(=O)[C@@H]1CCCN1C(=O)[C@H](Cc1ccccc1)NC(=O)[C@H](Cc1c[nH]c2ccccc12)NC(=O)[C@@H](N)CO", "note": "[15-7, (NH2)-SWFP-(CONH2)] (H-SWFP-NH2)", "values": [{"measurement": "Ki", "setting": "[2]", "value": "10.7 ± 2.25", "unit": "µM"}, {"measurement": "Kly18 inhibitory activity, single concentration screen", "setting": "[2]; FITC-casein substrate", "value": "retained efficient inhibitory potency"}]}
{"molecule": "H-SAAALRSGGGS-NH2 [control peptide, control peptide with the WFP motif replaced by a triple alanine, reference compound]", "values": [{"measurement": "Kly18 inhibition at very high dose", "setting": "[2]; 174 µM peptide, FITC-casein substrate, two experiments", "value": "curve similar to that of Kly18 with no peptide present"}]}
{"molecule": "(NH2)-WFPL-(CONH2) [15-15]", "values": [{"measurement": "Kly18 inhibitory activity, single concentration screen", "setting": "[2]; FITC-casein substrate", "value": "lost most or all of their Kly18 inhibition capacity"}]}
{"molecule": "H-SWFPL-NH2 [15-6, (NH2)-SWFPL-(CONH2)]", "values": [{"measurement": "Ki", "setting": "[2]", "value": "8.36 ± 2.34", "unit": "µM"}, {"measurement": "Inhibition of Kly48 proteolytic activity (dose-response)", "setting": "intact Karilysin (Kly48)", "value": "clear dose-response inhibition"}, {"measurement": "Effect on Kly48 auto-processing to Kly38 and Kly18", "setting": "Karilysin (Kly48)", "value": "inhibited the auto-processesing efficiently"}]}
{"molecule": "H-SWFPLR-NH2 [15-5, (NH2)-SWFPLR-(CONH2)]", "values": [{"measurement": "Ki", "setting": "[2]", "value": "6.52 ± 0.88", "unit": "µM"}]}
{"molecule": "H-WFPLRSGG-NH2 [15-11]", "values": [{"measurement": "Kly18 inhibitory activity, single concentration screen", "setting": "[2]; FITC-casein substrate", "value": "lost most or all of their Kly18 inhibition capacity"}]}
{"molecule": "H-WFPLRSGGG-NH2 [15-10]", "values": [{"measurement": "Kly18 inhibitory activity, single concentration screen", "setting": "[2]; FITC-casein substrate", "value": "lost most or all of their Kly18 inhibition capacity"}]}
